Read-outs that look alike come from different tables or passages of the source.
Assays:
IL-2 synthesis = details: cited from earlier work
[1] = system: HK-2 human kidney cells (human renal proximal tubule epithelial cells); test: Tacrolimus-induced loss of viability of HK-2 cells, lactate dehydrogenase in intact cells; format: cell-based
Method: The HK-2 human kidney cells were cultured in Keratinocyte-Serum Free Medium supplemented with recombinant epidermal growth factor and bovine pituitary extract. […] Each value represents the mean plus/minus the standard error of five determinations. **p<0.01 and *p<0.05 compared to the cells treated only with tacrolimus.

[2] = system: Jurkat human T-lymphocyte cells; test: Proliferation of Jurkat cells, bromodeoxyuridine incorporation; format: cell-based
Method: The Jurkat human T-lymphocyte cells were cultured in RPMI 1640 medium supplemented with 10% heat-inactivated fetal calf serum. The Jurkat cells were stimulated with mitogens (1 mg/ml of PHA and 50 ng/ml of PMA).
(§1) However, when Jurkat cells were stimulated with PHA and PMA, large quantities of interleukin-2 could be detected in the medium (FIG. 9). […] At the highest dose (10^−5 M), PACAP38 inhibited the proliferation of the Jurkat cells by more than 50%.

rat [3] = details: 48 hours, cited from earlier work
Male C57BL/6 mice = test: Cyclosporine A-induced nephrotoxicity in mice (serum creatinine, kidney TGF-β1); format: in vivo; details: cyclosporine A 5 mg/kg i.p., 20 μg PACAP38 i.p. 1 h before, 24 and 48 h
Method: The control group of mice was injected intraperitoneally with the same volume of saline as for the injections of cyclosporine A and PACAP38 on the same schedule. The mice were euthanized 24 hours after the final injection of PACAP38.
Male C57BL/6 mice were given a single intraperitoneal injection of 5 mg/kg of cyclosporine A. Twenty micrograms of PACAP38 were given intraperitoneally 1 hour before the injection of cyclosporine A and additional doses were given at 24 and 48 hours after the initial dose. The control group of mice was injected intraperitoneally with the same volume of saline as for the injections of cyclosporine A and PACAP38 on the same schedule. The mice were euthanized 24 hours after the final injection of PACAP38.

[4] = system: light-chain immunoglobulin-secreting human multiple myeloma cells; test: Proliferation of multiple myeloma cells with sirolimus, bromodeoxyuridine incorporation; format: cell-based
Method: The light-chain immunoglobulin-secreting human multiple myeloma cells were cultured in RPMI 1640 medium supplemented with 10% non-inactivated fetal bovine serum and 0.05 mM 2-mercaptoethanol. The effects of PACAP38, PACAP27 and PACAP analogs on myeloma cell proliferation were assessed by determining incorporation of bromodeoxyuridine into DNA during cell division. The number of myeloma cells approximately doubled during the 24-hour incubation period in the absence of treatment with PACAP-like peptides. Four different concentrations, ranging from 10^−9 M to 10^−6 M, were tested for PACAP38, PACAP27 and each of the PACAP analogs. Each value represents the mean plus/minus the standard error of four determinations. **p<0.01 and *p<0.05 compared to the cells treated only with sirolimus.
The effects of PACAP38, PACAP27 and PACAP analogs on human cell proliferation were assessed by determining incorporation of bromodeoxyuridine into DNA during cell division. […] At the highest dose (10^−6 M), PACAP38 inhibited the proliferation by more than 50%.

[5] = system: HK-2 human kidney cells (human renal proximal tubule epithelial cells); test: Cyclosporine A-induced injury (cytotoxicity) of HK-2 cells, lactate dehydrogenase in culture medium; format: cell-based; details: PACAP38 10^−8 M added to medium of cyclosporine A-treated HK-2 cells
Method: The effects of PACAP38 at a concentration of 10^−8 M on cell injury were assessed by determining the activity of the cytoplasmic enzyme lactate dehydrogenase in the culture medium. Each value represents the mean plus/minus the standard error of four determinations. **p<0.01 compared to the cells treated only with cyclosporine A.

HK-2 human kidney cells = test: Morphology of HK-2 cells, phase-contrast microscopy; format: cell-based; details: 50 μM cyclosporine A and 10^−8 M PACAP38 for 48 hours
Method: The cells were visualized with an inverted phase-contrast microscope. The HK-2 human kidney cells were grown to 80% confluence. (A) The morphology of the HK-2 cells grown in normal medium.

[6] = system: human renal proximal tubule epithelial cells (HK-2); test: TGF-β1 secretion by HK-2 cells treated with cyclosporine A; format: cell-based; details: PACAP38 10^−8 M, cyclosporine A-treated HK-2 cells
Method: The effects of PACAP38 at a concentration of 10^−8 M on the production of TGF-β1 were assessed by determining the concentration of TGF-β1 in the culture medium. Each value represents the mean plus/minus the standard error of six determinations. **p<0.01 compared to the cells treated only with cyclosporine A.

[7] = system: human T-lymphocyte cells (Jurkat); test: Methotrexate-induced apoptotic cell death of Jurkat cells; format: cell-based; details: methotrexate and PACAP38 for 24 hours, same dose range
Method: The Jurkat cells were cultured in RPMI 1640 medium supplemented with 10% heat-inactivated fetal calf serum. The cells were treated with PACAP38 for 24 hours. The […] effects of PACAP38 on apoptotic cell death were assessed by the quantitative determination of cytoplasmic histone-associated DNA-fragmentation (mono- and oligonucleosomes) after exposure to methotrexate for 24 hours. Each value represents the mean plus/minus the standard error of eight determinations. **p<0.01 and *p<0.05 compared to the cells treated only with methotrexate.
(§2) An ideal cytoprotective adjunctive agent should have the same effect as the main therapeutic agent against the intended therapeutic target, but protect the patient against the deleterious “off-target” effects of the main therapeutic. […] Furthermore, these experiments indicate that PACAP-like compounds would be beneficial as monotherapeutics for the treatment of leukemias. These experiments also indicate that combination therapy with PACAP-like compounds plus azathioprine or 6-mercaptopurine would result in an increased therapeutic index compared to azathioprine or 6-mercaptopurine, respectively, alone.

[8] = system: human renal proximal tubule epithelial cells; test: Methotrexate-induced apoptotic cell death of human renal proximal tubule epithelial cells; format: cell-based; details: methotrexate for 24 hours
Method: The inhibitory effects of PACAP38 on apoptotic cell death were assessed by the quantitative determination of cytoplasmic histone-associated DNA-fragmentation (mono- and oligonucleosomes) after exposure to methotrexate for 24 hours. Each value represents the mean plus/minus the standard deviation of six determinations. **p<0.01 and *p<0.05 compared to the cells treated only with methotrexate.
as §2

[9] = system: HK-2 human kidney cells (human renal proximal tubule epithelial cells); test: Sirolimus-induced apoptotic cell death of HK-2 cells, histone-associated DNA fragmentation; format: cell-based
Method: The HK-2 human kidney cells were cultured in Keratinocyte-Serum Free Medium supplemented with recombinant epidermal growth factor and bovine pituitary extract. The dose-dependent inhibitory effect of PACAP38 on apoptotic cell death was assessed by the quantitative determination of cytoplasmic histone-associated DNA-fragmentation (mono- and oligonucleosomes) after exposure to 100 ng/ml of sirolimus for 24 hours. Each value represents the mean plus/minus the standard error of eight determinations. **p<0.01 and *p<0.05 compared to the cells treated only with sirolimus.

[10] = system: Jurkat human T-lymphocyte cells; test: Inhibition by cyclosporine A of IL-2 secretion from Jurkat cells, enhancement by peptides; format: cell-based; details: peptide added on top of cyclosporine, 24 hours
Method: The Jurkat human T-lymphocyte cells were cultured in RPMI 1640 medium supplemented with 10% heat-inactivated fetal calf serum. The Jurkat cells were stimulated with mitogens (1 mg/ml of PHA and 50 ng/ml of PMA). […] Each value represents the mean plus/minus the standard error of eight determinations. **p<0.01 and *p<0.05 compared to the cells treated only with the mitogens.
However, when Jurkat cells were stimulated with PHA and PMA, large quantities of interleukin-2 could be detected in the medium (FIG. 11).

[11] = system: Jurkat human T-lymphocyte cells; test: Mitogen-stimulated secretion of interleukin-2 from Jurkat cells; format: cell-based; details: PHA and PMA stimulated Jurkat cells
Method: The Jurkat human T-lymphocyte cells were cultured in RPMI 1640 medium supplemented with 10% heat-inactivated fetal calf serum. The Jurkat cells were stimulated with the mitogens phytohemagglutinin (PHA, 1 mg/ml) and phorbol 12-myristate 13-acetate (PMA, 50 ng/ml). […] Each value represents the mean plus/minus the standard error of eight determinations. **p<0.01 and *p<0.05 compared to the cells treated only with the mitogens.
as §1

rat [12] = details: 15-minute occlusion, continuous infusion; cited from earlier work

**Q.** Which “potency as an inhibitor of IL-2 synthesis relative to cyclosporine A” value (IL-2 synthesis) does the source give for `C=CC[C@@H]1/C=C(\C)C[C@H](C)C[C@H](OC)[C@H]2O[C@@](O)(C(=O)C(=O)N3CCCC[C@H]3C(=O)O[C@H](/C(C)=C/[C@@H]3CC[C@@H](O)[C@H](OC)C3)[C@H](C)[C@@H](O)CC1=O)[C@H](C)C[C@@H]2OC` [tacrolimus, reference compound] here?
**A.** about 100 -fold

**Q.** What about the “number of viable cells” value ([1]; tacrolimus alone, HK-2 cells) of the same compound?
**A.** large significant decrease in the number of viable cells

**Q.** For PACAP38, which “inhibition of proliferation of Jurkat cells” value ([2]; highest dose 10^−5 M) is on record?
**A.** more than 50%

**Q.** And the “rate of proliferation of the human T-lymphocyte cell line” value ([2]; mitogen-stimulated Jurkat cells, 24 hours)?
**A.** significant dose-dependent inhibition

**Q.** What about the “reduction of the infarct volume” value (rat [3]; continuous i.v. infusion beginning 4 hours after start of 2 h MCAO) of the same compound?
**A.** approximately 51%

**Q.** And the “reduction of the infarct volume” value (rat [3]; continuous i.v. infusion beginning 8 hours after start of 2 h MCAO)?
**A.** ~22%

**Q.** And the “reduction of the infarct volume” value (rat [3]; continuous i.v. infusion beginning 12 hours after start of 2 h MCAO)?
**A.** ~12%

**Q.** And the “increase in TGF-β1 in the kidney” value (Male C57BL/6 mice)?
**A.** significantly reduced the increases

**Q.** And the “increase in serum creatinine” value (Male C57BL/6 mice)?
**A.** significantly reduced the increases

**Q.** And the inhibition of proliferation ([4]; highest dose 10^−6 M)?
**A.** more than 50%

**Q.** And the “rate of proliferation of the human B-lymphocyte cell line” value ([4]; multiple myeloma cells with sirolimus, 10^−9 M to 10^−6 M peptide, 24-hour incubation)?
**A.** significant dose-dependent inhibition

**Q.** And the “cyclosporine A-induced cell death” value [5]?
**A.** almost completely prevented

**Q.** And the “restoration of the cell monolayer, confluence” value (HK-2 human kidney cells)?
**A.** 70-80%

**Q.** And the “number of grossly elongated and filopodia-formatted cells” value (HK-2 human kidney cells; versus cyclosporine A alone)?
**A.** marked reduction

**Q.** And the “cyclosporine A-induced secretion of TGF-β1 into the medium” value [6]?
**A.** almost completely prevented the secretion of TGF-β1

**Q.** And the “killing of human T lymphocyte cells by methotrexate (apoptotic cell death)” value [7]?
**A.** potently stimulates the killing

**Q.** What about the “toxic side-effects of methotrexate on human renal proximal tubule epithelial cells (apoptotic cell death)” value [8] of the same compound?
**A.** potently inhibits the toxic side-effects of methotrexate

**Q.** And the “sirolimus-induced apoptotic cell death” value ([9]; highest dose 10^−6 M)?
**A.** almost completely prevented

**Q.** And the “sirolimus-induced apoptotic cell death” value ([9]; varying concentrations of PACAP38)?
**A.** significant dose-dependent reduction

**Q.** What about the “cyclosporine-induced inhibition of interleukin-2 secretion” value [10] of the same compound?
**A.** small dose-dependent enhancement

**Q.** What about the “potency as a renoprotectant relative to VIP” value ([1]; tacrolimus-treated HK-2 cells) of the same compound?
**A.** significantly more potent than VIP

**Q.** And the “loss of viable human renal proximal tubule epithelial cells caused by tacrolimus” value ([1]; various concentrations of peptide added to medium)?
**A.** significant dose-dependent reduction

**Q.** What about the “relative potency of PACAP38 and VIP on interleukin-2 secretion” value [11] of the same compound?
**A.** appeared to be equipotent

**Q.** What about the “mitogen-induced secretion of interleukin-2 into the medium” value ([11]; 24 hours) of the same compound?
**A.** large significant inhibition

**Q.** And the “reduction in the number of CA1 pyramidal cells at day 7 post-occlusion” value (rat [12])?
**A.** significantly reversed

Source: patent US20120309683A1, “USE OF […] ADENYLATE CYCLASE-ACTIVATING POLYPEPTIDE (PACAP) AND PACAP ANALOGS AS ADJUNCTIVE TREATMENTS WITH INHIBITORS OF CALCINEURIN OR INHIBITORS OF THE […] TARGET OF RAPAMYCIN (mTOR) COMPLEXES” (The Administrators of the Tulane Educational Fund, priority 2010, published 2012)
